Results published in patent US20140303092A1 (CHIMERIX, INC., priority 2011, published 2014).

Test: Study HDP-CDV-201: safety and tolerability (adverse events, laboratory abnormalities, discontinuations)
Assay type: in vivo, human (adult allogeneic HSCT recipients)
Details: for ALT, subject 4090 / AST, subject 4090 / Alk Phos, subject 4090 / Bilirubin, subject 4090: 100 BIW
Protocol: Clinical Studies of HDP-CDV were performed and described in detail in the following Examples. For example, HDP-CDV-201 is a placebo-controlled, dose-escalating trial in HSCT CMV (R+) recipients, evaluating the ability of HDP-CDV to prevent or control CMV infection was carried out. Five cohorts were established in which participants or subjects received either placebo or the HDP-CDV orally, in doses ranging from 40 mg weekly (QW) to 200 mg twice weekly (BIW). Subjects who were post-HSCT were enrolled at the time of engraftment and randomized to HDP-CDV or placebo (3 to 1 ratio) and received blinded therapy until approximately 100 day post-transplantation. HDP-CDV doses were 40 mg QW, 100 mg QW, 200 mg QW, 200 mg BIW and 100 mg BIW. Escalation to the next dose was decided by the data monitoring committee after review of the safety data from the previous Cohort. Subjects who developed CMV disease or CMV infection requiring pre-emptive therapy with local standard of care were discontinued from blinded therapy and followed for 4 weeks. Subjects who completed treatment with blinded therapy were followed for 8 weeks post-therapy.
Data from Study HDP-CDV-201 also provided characterization of the safety and tolerability profile of HDP-CDV when administered for the prevention or control of CMV infection in high risk (R^+) post-HSCT adult subjects.
The Safety population (SAFETY) included all randomized subjects who took at least one dose of study treatment. This population was used to summarize safety outcomes based on the treatment actually received, in cases where a subject was treated contrary to the randomization schedule.
The safety and tolerability profile of HDP-CDV, including subject demographics and Baseline characteristics; the AE profile; and laboratory abnormalities of interest were analyzed in the cohorts followed in this investigation.
Subjects completing the treatment period received a full course of study medication; those completing the entire study attended visits through 8 weeks of follow up. Subjects who discontinued treatment may have done so for protocol specified reasons (e.g. development of clinically significant CMV infection requiring preemptive treatment with excluded anti-CMV medications) or for other reasons (e.g., withdrawal, adverse events, loss to follow-up). The disposition of subjects in Study HDP-CDV-201 during the double-blind, placebo-controlled treatment period (through Week 11) is listed by dosing Cohort in TABLE 23.
Adverse events were examined by severity to ensure that all safety signals were identified in this study population. Because of the frequency of events in HSCT recipients, particular attention was given to evaluation of Grade 3 […], 4 (severe), and 5 (fatal) adverse events.
Only those preferred terms for which at least one Grade 3 or higher event was experienced in any treatment group are listed. Cytomegalovirus-related AEs are excluded from this analysis.
HDP-CDV is a lipid conjugate of CDV. Because CDV is known to have adverse effects on renal function and bone marrow, decreased GFR and persistent neutropenia were identified as AEs of special interest. Key renal and hematological (TABLE 30) laboratory parameters were measured and listed below by Study HDP-CDV-201 treatment groups. TABLE 30 includes abnormal levels of serum creatinine, neutrophils, platelets, WBCs, and hemoglobin and includes data at Screening and during the treatment period.
A common metric for unit based dosing of medications is by weight (mg/kg). When the distribution of weights was examined for all subjects participating in the study, the median was 78 kg and the lower 25th percentile weight was approximately 65 kg, which translates to a cut-off of ˜3 mg/kg for a 200 mg total weekly dose. Based upon this approach, a cut-off of 3 mg/kg was used to assess the frequency of diarrhea and associated GI AEs reported for the subjects in Cohorts 3 or 4a (TABLE 40).

## CCCCCCCCCCCCCCCCOCCCOP(=O)(O)COC(CO)Cn1ccc(N)nc1=O (stereo not drawn) [HDP-CDV]
200 mg QW
  TEAE LFT Abnormal, Grade 4: 0
  TEAE LFT Abnormal, Grade 5: 0
  TEAE Leukocytosis, Frequency: 2 (5.1%)
  TEAE Leukocytosis, Grade 2: 0
  TEAE Leukocytosis, Grade 3: 0
  TEAE Leukocytosis, Grade 4: 0
  TEAE Leukocytosis, Grade 5: 0
  TEAE Nausea, Frequency: 11 (28.2%)
  TEAE Nausea, Grade 2: 4 (10.3%)
  TEAE Nausea, Grade 3: 1 (2.6%)
  TEAE Nausea, Grade 4: 0
  TEAE Nausea, Grade 5: 0
  TEAE Neutropenia, Frequency: 4 (10.3%)
  TEAE Neutropenia, Grade 2: 1 (2.6%)
  TEAE Neutropenia, Grade 3: 3 (7.7%)
  TEAE Neutropenia, Grade 4: 0
  TEAE Neutropenia, Grade 5: 0
  TEAE Pneumonia, Frequency: 0
  TEAE Pneumonia, Grade 2: 0
  TEAE Pneumonia, Grade 3: 0
  TEAE Pneumonia, Grade 4: 0
  TEAE Pneumonia, Grade 5: 0
  TEAE Pyrexia, Frequency: 7 (17.9%)
  TEAE Pyrexia, Grade 2: 2 (5.1%)
  TEAE Pyrexia, Grade 3: 2 (5.1%)
  TEAE Pyrexia, Grade 4: 0
  TEAE Pyrexia, Grade 5: 0
  TEAE Renal Failure, Frequency: 0
  TEAE Renal Failure, Grade 2: 0
  TEAE Renal Failure, Grade 3: 0
  TEAE Renal Failure, Grade 4: 0
  TEAE Renal Failure, Grade 5: 0
  TEAE Staphylococcal Bacteremia, Frequency: 1 (2.6%)
  TEAE Staphylococcal Bacteremia, Grade 2: 0
  TEAE Staphylococcal Bacteremia, Grade 3: 1 (2.6%)
  TEAE Staphylococcal Bacteremia, Grade 4: 0
  TEAE Staphylococcal Bacteremia, Grade 5: 0
  TEAE Thrombocytopenia, Frequency: 0
  TEAE Thrombocytopenia, Grade 2: 0
  TEAE Thrombocytopenia, Grade 3: 0
  TEAE Thrombocytopenia, Grade 4: 0
  TEAE Thrombocytopenia, Grade 5: 0
  TEAE Vomiting, Frequency: 6 (15.4%)
  TEAE Vomiting, Grade 2: 1 (2.6%)
  TEAE Vomiting, Grade 3: 1 (2.6%)
  TEAE Vomiting, Grade 4: 0
  TEAE Vomiting, Grade 5: 0
  subjects requiring treatment with steroids during the study: 59%
200 mg QW (6 of 39)
  proportion of subjects with Grade 3 or higher ALT: 15.8%
200 mg QW, fasted state
  subjects who discontinued study medications: 54%
200 mg QW, n = 39
  Subjects Reporting Diarrhea as an AE: 13 (33.3%)
200 mg QW, active treatment period
  Discontinuation: Death: 3 (7.7%) Subject n (%)
200 mg QW, active treatment period through Week 11
  Discontinuation: Adverse event: 7 (17.9%) Subject n (%)
400 mg per week, given as 200 mg BIW
  subjects reporting SAEs involving the gastrointestinal tract: 63%
Treatment Wk 8
  ALT, subject 4090: 445 U/L
  AST, subject 4090: 195 U/L
  Alk Phos, subject 4090: Normal
  Bilirubin, subject 4090: 44 µmol/L
Treatment Wk 10
  ALT, subject 4090: 792 U/L
  AST, subject 4090: 312 U/L
  Alk Phos, subject 4090: Normal
  Bilirubin, subject 4090: Normal
200 BIW, Posttreatment Wk 1
  ALT, subject 4008: 137 U/L
  AST, subject 4008: Normal
  Bilirubin, subject 4008: 48 µmol/L
200 BIW, Posttreatment Wk 1, Previously elevated
  Alk Phos, subject 4008: 117 U/L
200 QW, Post Treatment Wk 1
  ALT, subject 3001: 375 U/L
  AST, subject 3001: 164 U/L
  Bilirubin, subject 3001: 89 µmol/L
200 QW, Post Treatment Wk 1, elevated
  Alk Phos, subject 3001: 337 U/L
200 QW, Post Treatment Wk 4
  ALT, subject 3044: 227 U/L
  AST, subject 3044: Normal
  Bilirubin, subject 3044: 50 µmol/L
200 QW, Post Treatment Wk 4, Previously elevated
  Alk Phos, subject 3044: 174 U/L
Cohort 1
  Grade of hepatobiliary AE symptomatic gallstones, subject 1016: 3
  Grade of hepatobiliary AE worsening hyperbilirubinemia, subject 1003: 4
  Outcome of hepatobiliary AE symptomatic gallstones, subject 1016: recovered/resolved
  Outcome of hepatobiliary AE worsening hyperbilirubinemia, subject 1003: not recovered/not
  Relationship of hepatobiliary AE symptomatic gallstones, subject 1016: not related
  Relationship of hepatobiliary AE worsening hyperbilirubinemia, subject 1003: not related
  subjects discontinued due to neutropenia: 0 subject(s)
Cohort 1, 40 mg QW
  ALT (Screening) >3 × ULN-5 × ULN, subjects: 0
  ALT (Screening) >5 × ULN-10 × ULN, subjects: 0
  ALT (Screening) >10 × ULN-20 × ULN, subjects: 0
  ALT (Screening) >20 × ULN, subjects: 0
  ALT (any time during therapy) >3 × ULN-5 × ULN, subjects: 2 (8.7%)
  ALT (any time during therapy) >5 × ULN-10 × ULN, subjects: 1 (4.3%)
  ALT (any time during therapy) >10 × ULN-20 × ULN, subjects: 0
  ALT (any time during therapy) >20 × ULN, subjects: 0
  AST (Screening) >3 × ULN-5 × ULN, subjects: 0
  AST (Screening) >5 × ULN-10 × ULN, subjects: 0
  AST (Screening) >10 × ULN-20 × ULN, subjects: 0
  AST (Screening) >20 × ULN, subjects: 0
  AST (any time during therapy) >3 × ULN-5 × ULN, subjects: 1 (4.3%)
  AST (any time during therapy) >5 × ULN-10 × ULN, subjects: 0
  AST (any time during therapy) >10 × ULN-20 × ULN, subjects: 0
  AST (any time during therapy) >20 × ULN, subjects: 0
  Alkaline Phosphatase (Screening) >2.5-5.0 × ULN, subjects: 0
  Alkaline Phosphatase (Screening) >5.0-20.0 × ULN, subjects: 0
  Alkaline Phosphatase (Screening) >20.0 × ULN, subjects: 0
  Alkaline Phosphatase (Screening) >ULN-[…] ULN, subjects: 6 (24.0%)
  Alkaline Phosphatase (any time during therapy) >2.5-5.0 × ULN, subjects: 0
  Alkaline Phosphatase (any time during therapy) >5.0-20.0 × ULN, subjects: 0
  Alkaline Phosphatase (any time during therapy) >20.0 × ULN, subjects: 0
  Alkaline Phosphatase (any time during therapy) >ULN-[…] ULN, subjects: 6 (26.1%)
  GI AE Leading to Study Drug Discontinuation: Abdominal pain, subjects: 0
  GI AE Leading to Study Drug Discontinuation: Diarrhoea, subjects: 0
  GI AE Leading to Study Drug Discontinuation: Dyspepsia, subjects: 0
  GI AE Leading to Study Drug Discontinuation: Nausea, subjects: 0
  GI AE Leading to Study Drug Discontinuation: Vomiting, subjects: 0
  GI AEs Leading to Study Drug Discontinuation: Total subjects discontinued: 0
